Test results published in PubChem BioAssay AID248 (DTP/NCI, 2004).
Where “and” joins values, the source holds several entries; their conditions need not be identical. Identical values can stand only once. Inconclusive results and toxic doses are left out. No stated cut-off is given here; in the data, active means T/C of 150% or more; inactive means T/C below 125%.

System: L1210 leukemia ip in BDF1 mice, survival T/C
Experiment: NCI In Vivo Anticancer Drug Screen. Data for tumor model L1210 Leukemia (intraperitoneal) in B6D2F1 (BDF1) mice
Conditions: endpoint: mean survival time, higher = longer survival
Method in brief: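 Each compound was tested against a transplantable tumor grown in mice. The endpoint was survival, with treated animals benchmarked against vehicle controls as a simple ratio.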

[1] = dose: 100.0 mg/kg/injection, schedule: Q04DX003 (ip), vehicle: saline with Tween-80
[2] = dose: 200.0 mg/kg/injection, schedule: Q04DX003 (ip), vehicle: saline with Tween-80
[3] = dose: 400.0 mg/kg/injection, schedule: Q04DX003 (ip), vehicle: saline with Tween-80
[4] = dose: 100.0 mg/kg/injection, schedule: Q01DX001 (ip), vehicle: carboxymethylcellulose (CMC)
[5] = dose: 400.0 mg/kg/injection, schedule: Q01DX001 (ip), vehicle: carboxymethylcellulose (CMC)
[6] = dose: 50.0 mg/kg/injection, schedule: Q01DX001 (ip), vehicle: saline
[7] = dose: 100.0 mg/kg/injection, schedule: Q01DX001 (ip), vehicle: Klucel (hydroxypropylcellulose) (HPC)
[8] = dose: 200.0 mg/kg/injection, schedule: Q01DX001 (ip), vehicle: Klucel (hydroxypropylcellulose) (HPC)
[9] = dose: 400.0 mg/kg/injection, schedule: Q01DX001 (ip), vehicle: Klucel (hydroxypropylcellulose) (HPC)
[10] = dose: 50.0 mg/kg/injection, schedule: Q01DX009 (ip), vehicle: saline with Tween-80
[11] = dose: 100.0 mg/kg/injection, schedule: Q01DX009 (ip), vehicle: saline with Tween-80
[12] = dose: 200.0 mg/kg/injection, schedule: Q01DX009 (ip), vehicle: saline with Tween-80
[13] = dose: 100.0 mg/kg/injection, schedule: Q04DX003 (ip), vehicle: Klucel (hydroxypropylcellulose) (HPC)
[14] = dose: 200.0 mg/kg/injection, schedule: Q04DX003 (ip), vehicle: Klucel (hydroxypropylcellulose) (HPC)
[15] = dose: 400.0 mg/kg/injection, schedule: Q01DX009 (ip), vehicle: saline with Tween-80
[16] = dose: 100.0 mg/kg/injection, schedule: Q01DX009 (ip), vehicle: Klucel (hydroxypropylcellulose) (HPC)
[17] = dose: 200.0 mg/kg/injection, schedule: Q01DX009 (ip), vehicle: Klucel (hydroxypropylcellulose) (HPC)
[18] = dose: 400.0 mg/kg/injection, schedule: Q01DX009 (ip), vehicle: Klucel (hydroxypropylcellulose) (HPC)
[19] = dose: 400.0 mg/kg/injection, schedule: Q04DX003 (ip), vehicle: Klucel (hydroxypropylcellulose) (HPC)
[20] = dose: 100.0 mg/kg/injection, schedule: Q01DX001 (ip), vehicle: saline

Measured: T/C

CC[N+](CC)(CC)CCCCCCCC[N+](CC)(CC)CC
inactive: dose: 0.78 mg/kg/injection, schedule: Q01DX009 (ip), vehicle: water 110 % of control | dose: 0.78 mg/kg/injection, schedule: Q04DX003 (ip), vehicle: saline 107 % of control | dose: 1.56 mg/kg/injection, schedule: Q01DX009 (ip), vehicle: water 111 % of control | dose: 1.56 mg/kg/injection, schedule: Q04DX003 (ip), vehicle: saline 104 % of control

CCCCC(NC(=O)CNC(=O)OCc1ccccc1)C(=O)OC (stereo not drawn)
inactive: [1] 108 % of control | [2] 100 % of control | [3] 93 % of control

CC(C)CC(NC(=O)OC(C)(C)C)C(=O)NC(Cc1c[nH]c2ccccc12)C(=O)NN (stereo not drawn)
inactive: [4] 88 % of control | [5] 94 % of control

Cc1ncc(N)c2c1OC(C)(C)OC2
inactive: [6] 91 % of control

O=C1c2ccccc2C(=O)N1c1ccc([N+](=O)[O-])cc1
inactive: [7] 103 % of control | [8] 97 % of control | [9] 103 % of control

CC1=CC(=O)N(C2=CC(=O)C=CC2=O)/C1=C/C#N
inactive: dose: 12.5 mg/kg/injection, schedule: Q01DX001 (ip), vehicle: Klucel (hydroxypropylcellulose) (HPC) 97 % of control | dose: 25.0 mg/kg/injection, schedule: Q01DX001 (ip), vehicle: Klucel (hydroxypropylcellulose) (HPC) 88 % of control | dose: 50.0 mg/kg/injection, schedule: Q01DX001 (ip), vehicle: Klucel (hydroxypropylcellulose) (HPC) 93 % of control and 89 % of control

CN(N=O)c1ccc(/C=C2\C=Cc3ccccc32)cc1
inactive: dose: 50.0 mg/kg/injection, schedule: Q01DX001 (ip), vehicle: carboxymethylcellulose (CMC) 96 % of control | [4] 93 % of control | dose: 200.0 mg/kg/injection, schedule: Q01DX001 (ip), vehicle: carboxymethylcellulose (CMC) 96 % of control | [5] 98 % of control

COc1ccc(OC)c(C2N(Cc3ccc(N(C)C)cc3)CCCN2Cc2ccc(N(C)C)cc2)c1
inactive: [10] 93 % of control | [11] 93 % of control | [12] 90 % of control

O=[N+]([O-])c1ccc(C=Nc2ccccc2)s1
inactive: [13] 98 % of control | [14] 93 % of control

NC(=S)C(=S)NCCO
inactive: [11] 103 % of control | [1] 100 % of control | [12] 94 % of control | [2] 93 % of control | [15] 100 % of control | [3] 93 % of control

CC(=O)c1ccc(Cc2ccc(C(C)=O)s2)s1
inactive: [10] 86 % of control | [11] 93 % of control | [12] 89 % of control

COc1c([N+](=O)[O-])cc(C(=O)O)cc1[N+](=O)[O-]
inactive: [16] 104 % of control | [13] 99 % of control | [17] 98 % of control | [14] 97 % of control | [18] 98 % of control | [19] 97 % of control

CC(=O)OCC(=O)[C@@]1(O)CC[C@H]2[C@@H]3CCC4=CC(=O)CC[C@]4(C)C3=CC[C@@]21C
inactive: dose: 12.5 mg/kg/injection, schedule: Q04DX003 (ip), vehicle: saline with Tween-80 95 % of control | dose: 25.0 mg/kg/injection, schedule: Q04DX003 (ip), vehicle: saline with Tween-80 93 % of control | dose: 50.0 mg/kg/injection, schedule: Q04DX003 (ip), vehicle: saline with Tween-80 90 % of control

Cc1csc2nccc(Cl)c12
inactive: dose: 50.0 mg/kg/injection, schedule: Q04DX002 (ip), vehicle: saline with Tween-80 98 % of control | dose: 100.0 mg/kg/injection, schedule: Q04DX002 (ip), vehicle: saline with Tween-80 91 % of control

O=C1OCCC1[P+](c1ccccc1)(c1ccccc1)c1ccccc1 (stereo not drawn)
inactive: [20] 88 % of control

COc1ccc(C(N)C(=O)O)cc1 (stereo not drawn)
inactive: [6] 94 % of control | dose: 75.0 mg/kg/injection, schedule: Q01DX009 (ip), vehicle: Klucel (hydroxypropylcellulose) (HPC) 110 % of control | [7] 96 % of control | [20] 94 % of control | dose: 150.0 mg/kg/injection, schedule: Q01DX009 (ip), vehicle: Klucel (hydroxypropylcellulose) (HPC) 113 % of control | [8] 97 % of control | dose: 200.0 mg/kg/injection, schedule: Q01DX001 (ip), vehicle: saline 96 % of control | dose: 300.0 mg/kg/injection, schedule: Q01DX009 (ip), vehicle: Klucel (hydroxypropylcellulose) (HPC) 101 % of control | [9] 92 % of control | dose: 400.0 mg/kg/injection, schedule: Q01DX001 (ip), vehicle: saline 96 % of control

CCCC[P+](CCCC)(CCCC)CCCC
inactive: dose: 5.0 mg/kg/injection, schedule: Q01DX001 (ip), vehicle: saline 102 % of control | dose: 6.25 mg/kg/injection, schedule: Q04DX002 (ip), vehicle: Klucel (hydroxypropylcellulose) (HPC) 89 % of control | dose: 10.0 mg/kg/injection, schedule: Q01DX001 (ip), vehicle: saline 123 % of control | dose: 12.5 mg/kg/injection, schedule: Q04DX002 (ip), vehicle: Klucel (hydroxypropylcellulose) (HPC) 103 % of control | dose: 20.0 mg/kg/injection, schedule: Q01DX001 (ip), vehicle: saline 104 % of control | dose: 25.0 mg/kg/injection, schedule: Q04DX002 (ip), vehicle: Klucel (hydroxypropylcellulose) (HPC) 95 % of control and 104 % of control

CCOC(=O)/C=C\c1c(OC)nc2ccccn2c1=O (tested in a mixture with another compound)
inactive: [16] 101 % of control | [13] 94 % of control | [17] 100 % of control | [14] 92 % of control | [18] 101 % of control | [19] 95 % of control

O=C1c2cccc3c([N+](=O)[O-])ccc(c23)C(=O)N1CCCN1CCOCC1
inactive: dose: 25.0 mg/kg/injection, schedule: Q01DX009 (ip), vehicle: Klucel (hydroxypropylcellulose) (HPC) 104 % of control | dose: 50.0 mg/kg/injection, schedule: Q01DX009 (ip), vehicle: Klucel (hydroxypropylcellulose) (HPC) 98 % of control | [16] 93 % of control and 87 % of control

NC(=O)N/N=C1\CCCCC12CCCCC2
inactive: dose: 100.0 mg/kg/injection, schedule: Q04DX003 (ip), vehicle: acetone 95 % of control | dose: 200.0 mg/kg/injection, schedule: Q04DX003 (ip), vehicle: acetone 103 % of control | dose: 400.0 mg/kg/injection, schedule: Q04DX003 (ip), vehicle: acetone 97 % of control

CN(C)c1ccc(C(=O)O)cn1
inactive: [11] 96 % of control | dose: 100.0 mg/kg/injection, schedule: Q04DX003 (ip), vehicle: saline 100 % of control | [12] 105 % of control | dose: 200.0 mg/kg/injection, schedule: Q04DX003 (ip), vehicle: saline 100 % of control | [15] 102 % of control | dose: 400.0 mg/kg/injection, schedule: Q04DX003 (ip), vehicle: saline 100 % of control

O=C(NC1CCCCC1)C(=S)NC1CCCCC1
inactive: [16] 93 % of control | [17] 101 % of control | [18] 98 % of control
